Measurements published in patent US20250205206A1, “USE OF DEXPRAMIPEXOLE FOR THE TREATMENT OF INADEQUATELY CONTROLLED MODERATE TO SEVERE ASTHMA” (Areteia Therapeutics, Inc., priority 2023, published 2025).
Where two headings read alike, the source gives them in different places.

Assays:
[1] = test system: subjects with eosinophilic chronic rhinosinusitis with nasal polyps; settings: cited from earlier work; for total polyp score (TPS), mean value: baseline 5.29
[2] = test system: moderate to severe asthma; test: Phase II dose finding study in moderate to severe asthma (EXHALE)
[3] = test system: Chronic rhinosinusitis with nasal polyps; settings: in vivo; cited from earlier work
[4] = 150 mg twice daily, 6 month trial
[5] = 150 mg twice daily, 12 subjects with a history of asthma

## CCCN[C@@H]1CCc2nc(N)sc2C1 [dexpramipexole, (6R)-2-amino-4,5,6,7-tetrahydro-6-(propylamino)benzothiazole]
[1]; 150 mg twice daily, 3 months
  total polyp score (TPS), mean value: 5.50
[1]; [4]
  SNOT-22 (rhinosinusitis symptoms): not improved
  Sniffin Sticks olfaction test: not improved
  sinus CT score: not improved
[1]; 150 mg twice daily, 6 months
  total polyp score (TPS), mean value: 5.42
[1]; [5]
  ACQ6 value: unchanged
  FEV1 value: unchanged
[1]; dexpramipexole 150 mg twice daily, after 6 months, 16 subjects
  lowering of the AEC (blood absolute eosinophil count): 94%
[2]; Phase II, compared with placebo
  safety and tolerability profile: tolerability profile of dexpramipexole in this Phase II study was similar to
[2]; Phase II, moderate to severe asthma
  eosinophils in blood and airways: significant, dose-dependent, and durable reductions
[2]; across the dose groups at various timepoints
  placebo-corrected change from baseline in pre-bronchodilator (pre-BD) FEV1: clinically meaningful, placebo-corrected, change from baseline in pre-

B1: mepolizumab: eosinophil lowering drug; monoclonal antibody administered subcutaneously for asthma (antibody, chains of the INN, looked up, V domains shown)
VH: QVTLRESGPALVKPTQTLTLTCTVSGFSLTSYSVHWVRQPPGKGLEWLGVIWASGGTDYNSALMSRLSISKDTSRNQVVLTMTNMDPVDTATYYCARDPPSSLLRLDYWGRGTPVTVSS
VL: DIVMTQSPDSLAVSLGERATINCKSSQSLLNSGNQKNYLAWYQQKPGQPPKLLIYGASTRESGVPDRFSGSGSGTDFTLTISSLQAEDVAVYYCQNVHSFPFTFGGGTKLEIK
[3]
  efficacy in chronic rhinosinusitis with nasal polyps: have shown efficacy
